Test results taken from ChEMBL document CHEMBL1201862, “PubChem BioAssay data set” (2004).
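Results reflect a 48-hour exposure of cells in 96-well plates to compound at five concentrations. At the GI50, growth is halved.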 Active and inactive are the calls of the source. Rule as the data show it: active = GI50 up to about 1.1 µM and inactive = higher.

What was measured:
Experiment in all cases: NCI tumour cell line growth inhibition, 48 h
BT-549 = tested on: BT-549
CCRF-CEM = tested on: CCRF-CEM
DU-145 = tested on: DU-145
HCT-116 = tested on: HCT-116
HCT-15 = tested on: HCT-15
HOP-92 = tested on: HOP-92
NCI/ADR-RES = tested on: NCI/ADR-RES
OVCAR-4 = tested on: OVCAR-4
PC-3 = tested on: PC-3
SF-268 = tested on: SF-268
SF-295 = tested on: SF-295
SF-539 = tested on: SF-539
SNB-19 = tested on: SNB-19
SNB-75 = tested on: SNB-75
SR = tested on: SR
SW-620 = tested on: SW-620
T47D = tested on: T47D
U-251 = tested on: U-251
UACC-257 = tested on: UACC-257
UO-31 = tested on: UO-31

Measured: GI50

CN1CCN(c2n[nH]c(=O)c3c2nnn3C2CCCCC2)CC1
> 100 µM: HCT-15
inactive: BT-549 > 100 µM | CCRF-CEM > 100 µM | DU-145 > 100 µM | HCT-116 > 100 µM | HOP-92 > 100 µM | NCI/ADR-RES > 100 µM | OVCAR-4 > 100 µM | PC-3 > 100 µM | SF-268 > 100 µM | SF-295 > 100 µM | SF-539 > 100 µM | SNB-19 > 100 µM | SNB-75 > 100 µM | SR > 100 µM | SW-620 > 100 µM | T47D > 100 µM | U-251 > 100 µM | UACC-257 > 100 µM | UO-31 > 100 µM

C=C(C)[C@@H]1CC=C(CO)CC1 [PERILLYL ALCOHOL]
167 µM: HCT-15
inactive: BT-549 > 10 µM | CCRF-CEM 101 µM | DU-145 > 10 µM | HCT-116 96.2 µM | HOP-92 117 µM | NCI/ADR-RES > 10 µM | OVCAR-4 515 µM | PC-3 > 10 µM | SF-268 84.1 µM | SF-295 266 µM | SF-539 501 µM | SNB-19 348 µM | SNB-75 56 µM | SR 152 µM | SW-620 637 µM | T47D > 10 µM | U-251 125 µM | UACC-257 533 µM | UO-31 410 µM
